The values that follow come from ChEMBL document CHEMBL1141197, “Interaction of papain-like cysteine proteases with dipeptide-derived nitriles” (J Med Chem, 2005).

The target in one assay is T1, Cathepsin K (Homo sapiens, UniProt P43235).
T1 sequence (P43235 whole entry): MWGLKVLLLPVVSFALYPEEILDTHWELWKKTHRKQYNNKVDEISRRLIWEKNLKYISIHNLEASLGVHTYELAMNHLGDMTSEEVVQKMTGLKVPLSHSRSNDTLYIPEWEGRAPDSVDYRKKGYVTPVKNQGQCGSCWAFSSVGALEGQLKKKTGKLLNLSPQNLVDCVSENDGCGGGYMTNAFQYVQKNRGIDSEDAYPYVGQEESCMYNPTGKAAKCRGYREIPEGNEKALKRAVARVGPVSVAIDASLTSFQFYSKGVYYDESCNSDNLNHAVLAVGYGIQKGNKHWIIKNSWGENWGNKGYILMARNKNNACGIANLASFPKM
Nature of the assay: Inhibitory activity against human cathepsin K using Z-Leu-Arg-NHMec substrate.

For another assay, the target named is Cathepsin S (Homo sapiens, UniProt P25774). Nature of the assay: Inhibitory activity against human cathepsin S using Z-Val-Val-Arg-NHMec substrate.
Sequence of Cathepsin S (P25774 whole entry): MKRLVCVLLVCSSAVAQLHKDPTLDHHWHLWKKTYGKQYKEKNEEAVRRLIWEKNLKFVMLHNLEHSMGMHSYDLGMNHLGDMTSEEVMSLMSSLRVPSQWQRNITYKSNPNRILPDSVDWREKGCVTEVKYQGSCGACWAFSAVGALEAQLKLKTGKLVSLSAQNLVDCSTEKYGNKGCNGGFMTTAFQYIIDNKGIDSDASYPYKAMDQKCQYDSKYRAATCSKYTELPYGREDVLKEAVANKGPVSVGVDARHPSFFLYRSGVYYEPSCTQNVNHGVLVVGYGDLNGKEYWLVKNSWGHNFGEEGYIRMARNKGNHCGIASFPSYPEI
Assay [1] deals with Procathepsin L (Homo sapiens, UniProt P07711). As to the kind of experiment: Inhibitory activity against human cathepsin L using Z-Phe-Arg-NHMec substrate.
Sequence of Procathepsin L (Homo sapiens, UniProt P07711) (P07711 whole entry): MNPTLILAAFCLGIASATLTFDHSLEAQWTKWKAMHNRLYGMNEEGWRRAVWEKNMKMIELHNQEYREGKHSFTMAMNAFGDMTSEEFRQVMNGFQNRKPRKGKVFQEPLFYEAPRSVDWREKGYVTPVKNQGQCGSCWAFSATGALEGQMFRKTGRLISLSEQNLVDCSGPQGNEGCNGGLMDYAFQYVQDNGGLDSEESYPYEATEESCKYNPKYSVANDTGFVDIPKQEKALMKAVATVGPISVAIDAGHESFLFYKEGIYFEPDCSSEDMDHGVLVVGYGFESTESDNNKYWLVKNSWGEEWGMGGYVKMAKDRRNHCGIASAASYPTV
Assay [2] has as its target Procathepsin L (Bos taurus, UniProt P25975). Nature of the assay: Inhibitory activity against bovine cathepsin L using Z-Phe-Arg-NHMec substrate.
The next assay concerns the target T2, Papain (Carica papaya, UniProt P00784).
T2 sequence (P00784 whole entry): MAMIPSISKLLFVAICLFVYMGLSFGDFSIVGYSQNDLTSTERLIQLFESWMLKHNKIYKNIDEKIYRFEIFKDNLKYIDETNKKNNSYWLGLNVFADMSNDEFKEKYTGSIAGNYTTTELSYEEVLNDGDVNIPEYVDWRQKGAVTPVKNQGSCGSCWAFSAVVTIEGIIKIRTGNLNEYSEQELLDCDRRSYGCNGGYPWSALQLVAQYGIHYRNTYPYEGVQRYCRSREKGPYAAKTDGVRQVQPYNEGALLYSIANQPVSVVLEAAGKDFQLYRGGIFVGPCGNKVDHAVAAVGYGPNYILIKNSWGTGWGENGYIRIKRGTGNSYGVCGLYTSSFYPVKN
As to the kind of experiment: Inhibitory activity against papain using Z-Phe-Arg-NHNp substrate.

Sequence of Procathepsin L (Bos taurus, UniProt P25975) (P25975 whole entry): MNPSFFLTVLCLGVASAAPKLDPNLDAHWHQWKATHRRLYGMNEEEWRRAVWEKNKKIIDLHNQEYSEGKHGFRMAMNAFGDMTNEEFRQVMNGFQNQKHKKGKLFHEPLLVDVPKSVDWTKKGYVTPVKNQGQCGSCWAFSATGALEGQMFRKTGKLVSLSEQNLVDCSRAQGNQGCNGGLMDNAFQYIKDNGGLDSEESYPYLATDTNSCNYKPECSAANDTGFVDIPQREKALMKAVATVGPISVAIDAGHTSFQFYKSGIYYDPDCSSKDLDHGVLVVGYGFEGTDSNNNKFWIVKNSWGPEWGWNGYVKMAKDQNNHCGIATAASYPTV

Regarding `N#CCNC(=O)[C@H](Cc1ccccc1)NC(=O)OCc1ccccc1`, the Ki at Cathepsin K was 260 nM; at Cathepsin S it was 510 nM; on Procathepsin L [1], 230 nM; on Procathepsin L [2] it was 180 nM; on Papain, 360 nM.

As for `CC(C)(C)OC(=O)N[C@@H](Cc1c[nH]c2ccccc12)C(=O)NCC#N`, the Ki on Cathepsin K turned out to be 29000 nM; at Cathepsin S, 240 nM; at Procathepsin L [1], 430 nM; at Procathepsin L [2], 350 nM; on Papain, 7600 nM.

As for `CC(C)(C)OC(=O)N[C@@H](Cc1csc2ccccc12)C(=O)NCC#N`, the Ki on Cathepsin K was determined as 34000 nM; on Cathepsin S, 300 nM; on Procathepsin L [1] it was 290 nM; on Procathepsin L [2] it was 320 nM; at Papain it was 7400 nM.

For `CC(C)(C)OC(=O)N[C@@H](Cc1ccc(O)cc1)C(=O)NCC#N`, the Ki on Cathepsin K was determined as 30000 nM; on Cathepsin S it was 970 nM; at Procathepsin L [2], 400 nM; at Papain, 190 nM.

Turning to `CC(C)(C)OC(=O)NN(Cc1ccccc1)C(=O)NCC#N`, the Ki at Cathepsin K is above 100000 nM; on Cathepsin S it was above 50000 nM; at Procathepsin L [2], above 100000 nM; on Papain it was 725000 nM.
